Measurements as given in article PMC6478789, “A chemical toolbox for the study of bromodomains and epigenetic signaling” (Nature Communications, 2019).

Experiments:
[1] = molecular target: BRD3(2) (Homo sapiens, UniProt Q15059); parameters: purchased; conditions: ITC data; ref 7 (suppl.); cited from earlier work
[2] = tested on: three TNBC lines; assay: Combinatorial screen of BRD inhibitors with or without BAY-876 (confluency); type: cell-based, human; conditions: 3 μM probe + 3 μM BAY-876
Protocol: Fig. 6 BRD inhibitors leverage metabolic adaptations induced by glucose transporter I (GLUT1) inhibition in TNBC. a BRD inhibitor screening across ten TNBC cell lines. Cells were treated with indicated BRD inhibitors at 3 μM for 7 days. Confluency was measured using an IncuCyte ZOOM live cell imaging device. Data shown are mean ± s.d. of n = 4 independent cell culture grown and treated cells. A two-sided Student’s t test was used to derive the p-values. b SLC2A1 gene expression in the The Cancer Genome Atlas (TCGA) breast datasets. The cohorts were divided into TNBCs (red) and non-TNBCs (blue) according to PAM50 classification. Gene expression is reported as median-centered expression log2 values. The number of patients (n) per group is indicated. P-values were determined using a Wilcoxon's rank-sum test. c Glucose uptake in MDA-MB-436 cells in response to BAY-876 treatment relative to vehicle. MDA-MB-436 cells were treated with dimethyl sulfoxide (DMSO) or 3 µM BAY-876 for 5 days. Graph indicates mean, error bars denote s.d. from three independent assays and p-value was computed using the Benjamini-Hochberg t test; ***p < 0.001. d Effects of BAY-876 treatment on the intracellular acetyl-CoA level. Graph indicates mean, error bars denote s.d. from three independent assays and p-value was computed using the Benjamini-Hochberg t test; ***p < 0.001. e Effects of BAY-876 treatment on intracellular NAD^+/NADH level. Graph indicates the mean, error bars denote s.d. from three independent assays and p-value computed using the Benjamini-Hochberg t test; **p < 0.01. f Immunoblot analysis of H3 and H4 acetylation in MDA-MB-436 cells before and after BAY-876 treatment. P-value computed using the Benjamini-Hochberg t test; ***p < 0.001. g Cell growth effects of BAY-876 treatment on three representative cell lines. n.s. not significant. h Combinatorial screening of BRD inhibitors with or without 3 μM BAY-876 across ten TNBC cell lines. Cell confluency was obtained from the endpoint Incucyte scanning. (Left) Heatmap of the combinatorial screening results; (Right) Cell confluency after treatment with three potential BRDi candidates at 3 μM in the presence or absence of 3 μM BAY-876 in three representative cell lines. Graph indicates mean, error bars denote s.d. from three independent assays and p-values were computed using the Benjamini-Hochberg t test; **p < 0.01; ***p < 0.001. Raw data images are available in Supplementary Fig. 4
TNBC cell lines were seeded in sterile, transparent 384-well plates at 500 cells per well in 50 µl media. Chemical probes were delivered in dimethyl sulfoxide (DMSO). Cell confluency at 7 days was evaluated using an Incucyte ZOOM live cell imaging device (Essen Bioscence) and analyzed with the Incucyte ZOOM (2016A) software based on phase contrast image.

[3] = molecular target: T1, MYST1 (Homo sapiens, UniProt Q9H7Z6); assay: Histone acetyltransferase (HAT) activity assay; type: biochemical;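 also: selectivity screen across a panel of histone acetyltransferases, with compounds tested at 1 and 10 µM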
T1 sequence (Q9H7Z6 1-458): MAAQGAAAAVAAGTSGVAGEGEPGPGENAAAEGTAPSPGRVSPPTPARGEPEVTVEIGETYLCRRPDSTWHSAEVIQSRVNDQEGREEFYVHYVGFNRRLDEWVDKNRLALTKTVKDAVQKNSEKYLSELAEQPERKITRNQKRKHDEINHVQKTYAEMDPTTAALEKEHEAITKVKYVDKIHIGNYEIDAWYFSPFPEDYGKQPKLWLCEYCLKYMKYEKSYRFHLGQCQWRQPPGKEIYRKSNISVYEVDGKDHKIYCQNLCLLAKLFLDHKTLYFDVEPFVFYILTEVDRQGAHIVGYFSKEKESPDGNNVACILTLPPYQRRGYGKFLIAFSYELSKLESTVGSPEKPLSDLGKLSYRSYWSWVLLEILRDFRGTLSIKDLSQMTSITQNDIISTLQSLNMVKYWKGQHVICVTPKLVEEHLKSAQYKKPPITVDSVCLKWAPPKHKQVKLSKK

[4] = molecular target: BRD3(1) (Homo sapiens, UniProt Q15059); parameters: purchased; conditions: ITC data; ref 7 (suppl.); cited from earlier work
BRD3(1), sequence (Q15059 34-140 limits assumed): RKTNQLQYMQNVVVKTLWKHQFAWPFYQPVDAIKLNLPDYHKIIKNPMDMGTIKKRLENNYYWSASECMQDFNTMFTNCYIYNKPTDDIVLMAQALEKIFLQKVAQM

[5] = molecular target: BRDT(2) (Homo sapiens, UniProt Q58F21); parameters: purchased; method as in ref 7 (suppl.); conditions: ITC data; ref 7 (suppl.); cited from earlier work
[6] = molecular target: BRD2(2) (Homo sapiens, UniProt P25440); parameters: purchased; method as in ref 7 (suppl.); conditions: ITC data; ref 7 (suppl.); cited from earlier work
BRD2(2), sequence (P25440 344-453 limits assumed): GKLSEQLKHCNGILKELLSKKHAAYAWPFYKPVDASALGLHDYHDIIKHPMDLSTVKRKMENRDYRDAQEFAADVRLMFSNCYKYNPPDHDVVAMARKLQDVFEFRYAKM

[7] = molecular target: MYST3 (Homo sapiens, UniProt Q92794); assay: Histone acetyltransferase (HAT) activity assay; type: biochemical;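 also: selectivity screen of bromodomain probe compounds across a panel of histone acetyltransferases, read out as enzyme activity in %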
MYST3, sequence (Q92794 whole entry, species assumed): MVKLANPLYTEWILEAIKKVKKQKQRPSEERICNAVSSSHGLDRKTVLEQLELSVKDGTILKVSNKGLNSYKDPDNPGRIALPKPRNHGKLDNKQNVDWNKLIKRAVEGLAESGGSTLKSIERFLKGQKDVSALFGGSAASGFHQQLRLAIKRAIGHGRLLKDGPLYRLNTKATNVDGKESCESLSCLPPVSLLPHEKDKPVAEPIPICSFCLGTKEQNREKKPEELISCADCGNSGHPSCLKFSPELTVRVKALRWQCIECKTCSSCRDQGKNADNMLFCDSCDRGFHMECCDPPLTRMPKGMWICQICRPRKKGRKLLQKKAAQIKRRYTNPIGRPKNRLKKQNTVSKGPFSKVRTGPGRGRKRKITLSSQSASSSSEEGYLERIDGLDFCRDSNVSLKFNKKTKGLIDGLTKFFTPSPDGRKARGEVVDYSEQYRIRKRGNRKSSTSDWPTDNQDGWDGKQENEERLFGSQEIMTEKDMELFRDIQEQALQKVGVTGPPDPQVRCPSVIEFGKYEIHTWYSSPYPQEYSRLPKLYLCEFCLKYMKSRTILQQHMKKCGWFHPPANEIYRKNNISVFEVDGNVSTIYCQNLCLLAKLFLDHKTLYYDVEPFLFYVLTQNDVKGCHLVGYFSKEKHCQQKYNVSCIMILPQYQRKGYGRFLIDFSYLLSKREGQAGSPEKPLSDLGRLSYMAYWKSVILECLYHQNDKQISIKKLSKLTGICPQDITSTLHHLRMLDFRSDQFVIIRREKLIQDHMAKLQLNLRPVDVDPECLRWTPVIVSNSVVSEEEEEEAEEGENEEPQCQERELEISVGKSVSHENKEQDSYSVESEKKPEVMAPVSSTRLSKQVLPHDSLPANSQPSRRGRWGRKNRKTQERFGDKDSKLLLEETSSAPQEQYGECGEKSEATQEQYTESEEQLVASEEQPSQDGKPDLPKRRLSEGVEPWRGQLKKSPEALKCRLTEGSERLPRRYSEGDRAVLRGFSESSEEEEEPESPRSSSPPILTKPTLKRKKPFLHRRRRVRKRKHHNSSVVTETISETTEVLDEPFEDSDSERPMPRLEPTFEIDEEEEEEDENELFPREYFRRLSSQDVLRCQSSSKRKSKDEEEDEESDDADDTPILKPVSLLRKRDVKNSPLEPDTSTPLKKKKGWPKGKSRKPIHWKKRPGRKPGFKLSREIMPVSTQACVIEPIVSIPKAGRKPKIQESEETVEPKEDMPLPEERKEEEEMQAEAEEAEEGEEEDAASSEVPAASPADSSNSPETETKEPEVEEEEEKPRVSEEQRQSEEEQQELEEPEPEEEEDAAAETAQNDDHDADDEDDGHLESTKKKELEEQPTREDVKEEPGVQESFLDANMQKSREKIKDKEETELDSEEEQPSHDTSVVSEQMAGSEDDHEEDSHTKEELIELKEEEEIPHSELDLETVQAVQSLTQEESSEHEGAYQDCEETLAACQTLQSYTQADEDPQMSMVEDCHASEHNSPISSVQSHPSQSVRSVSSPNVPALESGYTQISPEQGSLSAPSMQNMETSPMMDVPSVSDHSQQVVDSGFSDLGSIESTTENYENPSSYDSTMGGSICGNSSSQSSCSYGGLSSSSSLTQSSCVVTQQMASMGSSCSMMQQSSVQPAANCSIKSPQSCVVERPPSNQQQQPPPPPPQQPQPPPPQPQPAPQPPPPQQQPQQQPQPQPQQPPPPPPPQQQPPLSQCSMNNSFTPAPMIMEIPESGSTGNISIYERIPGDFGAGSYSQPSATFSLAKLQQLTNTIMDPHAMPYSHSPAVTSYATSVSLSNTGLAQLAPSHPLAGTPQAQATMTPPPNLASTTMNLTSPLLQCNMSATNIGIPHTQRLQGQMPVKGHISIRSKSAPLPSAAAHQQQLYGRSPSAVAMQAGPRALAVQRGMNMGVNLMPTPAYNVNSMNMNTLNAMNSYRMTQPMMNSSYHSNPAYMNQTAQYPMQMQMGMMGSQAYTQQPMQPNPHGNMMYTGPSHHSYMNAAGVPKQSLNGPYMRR

[8] = molecular target: EP300 (Homo sapiens, UniProt Q09472); assay: Histone acetyltransferase (HAT) activity assay; type: biochemical;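 also: selectivity screen of bromodomain probe compounds against histone acetyltransferases, with enzyme activity given in percent for compounds tested at 1 and 10 µM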
EP300, sequence (Q09472 whole entry, species assumed): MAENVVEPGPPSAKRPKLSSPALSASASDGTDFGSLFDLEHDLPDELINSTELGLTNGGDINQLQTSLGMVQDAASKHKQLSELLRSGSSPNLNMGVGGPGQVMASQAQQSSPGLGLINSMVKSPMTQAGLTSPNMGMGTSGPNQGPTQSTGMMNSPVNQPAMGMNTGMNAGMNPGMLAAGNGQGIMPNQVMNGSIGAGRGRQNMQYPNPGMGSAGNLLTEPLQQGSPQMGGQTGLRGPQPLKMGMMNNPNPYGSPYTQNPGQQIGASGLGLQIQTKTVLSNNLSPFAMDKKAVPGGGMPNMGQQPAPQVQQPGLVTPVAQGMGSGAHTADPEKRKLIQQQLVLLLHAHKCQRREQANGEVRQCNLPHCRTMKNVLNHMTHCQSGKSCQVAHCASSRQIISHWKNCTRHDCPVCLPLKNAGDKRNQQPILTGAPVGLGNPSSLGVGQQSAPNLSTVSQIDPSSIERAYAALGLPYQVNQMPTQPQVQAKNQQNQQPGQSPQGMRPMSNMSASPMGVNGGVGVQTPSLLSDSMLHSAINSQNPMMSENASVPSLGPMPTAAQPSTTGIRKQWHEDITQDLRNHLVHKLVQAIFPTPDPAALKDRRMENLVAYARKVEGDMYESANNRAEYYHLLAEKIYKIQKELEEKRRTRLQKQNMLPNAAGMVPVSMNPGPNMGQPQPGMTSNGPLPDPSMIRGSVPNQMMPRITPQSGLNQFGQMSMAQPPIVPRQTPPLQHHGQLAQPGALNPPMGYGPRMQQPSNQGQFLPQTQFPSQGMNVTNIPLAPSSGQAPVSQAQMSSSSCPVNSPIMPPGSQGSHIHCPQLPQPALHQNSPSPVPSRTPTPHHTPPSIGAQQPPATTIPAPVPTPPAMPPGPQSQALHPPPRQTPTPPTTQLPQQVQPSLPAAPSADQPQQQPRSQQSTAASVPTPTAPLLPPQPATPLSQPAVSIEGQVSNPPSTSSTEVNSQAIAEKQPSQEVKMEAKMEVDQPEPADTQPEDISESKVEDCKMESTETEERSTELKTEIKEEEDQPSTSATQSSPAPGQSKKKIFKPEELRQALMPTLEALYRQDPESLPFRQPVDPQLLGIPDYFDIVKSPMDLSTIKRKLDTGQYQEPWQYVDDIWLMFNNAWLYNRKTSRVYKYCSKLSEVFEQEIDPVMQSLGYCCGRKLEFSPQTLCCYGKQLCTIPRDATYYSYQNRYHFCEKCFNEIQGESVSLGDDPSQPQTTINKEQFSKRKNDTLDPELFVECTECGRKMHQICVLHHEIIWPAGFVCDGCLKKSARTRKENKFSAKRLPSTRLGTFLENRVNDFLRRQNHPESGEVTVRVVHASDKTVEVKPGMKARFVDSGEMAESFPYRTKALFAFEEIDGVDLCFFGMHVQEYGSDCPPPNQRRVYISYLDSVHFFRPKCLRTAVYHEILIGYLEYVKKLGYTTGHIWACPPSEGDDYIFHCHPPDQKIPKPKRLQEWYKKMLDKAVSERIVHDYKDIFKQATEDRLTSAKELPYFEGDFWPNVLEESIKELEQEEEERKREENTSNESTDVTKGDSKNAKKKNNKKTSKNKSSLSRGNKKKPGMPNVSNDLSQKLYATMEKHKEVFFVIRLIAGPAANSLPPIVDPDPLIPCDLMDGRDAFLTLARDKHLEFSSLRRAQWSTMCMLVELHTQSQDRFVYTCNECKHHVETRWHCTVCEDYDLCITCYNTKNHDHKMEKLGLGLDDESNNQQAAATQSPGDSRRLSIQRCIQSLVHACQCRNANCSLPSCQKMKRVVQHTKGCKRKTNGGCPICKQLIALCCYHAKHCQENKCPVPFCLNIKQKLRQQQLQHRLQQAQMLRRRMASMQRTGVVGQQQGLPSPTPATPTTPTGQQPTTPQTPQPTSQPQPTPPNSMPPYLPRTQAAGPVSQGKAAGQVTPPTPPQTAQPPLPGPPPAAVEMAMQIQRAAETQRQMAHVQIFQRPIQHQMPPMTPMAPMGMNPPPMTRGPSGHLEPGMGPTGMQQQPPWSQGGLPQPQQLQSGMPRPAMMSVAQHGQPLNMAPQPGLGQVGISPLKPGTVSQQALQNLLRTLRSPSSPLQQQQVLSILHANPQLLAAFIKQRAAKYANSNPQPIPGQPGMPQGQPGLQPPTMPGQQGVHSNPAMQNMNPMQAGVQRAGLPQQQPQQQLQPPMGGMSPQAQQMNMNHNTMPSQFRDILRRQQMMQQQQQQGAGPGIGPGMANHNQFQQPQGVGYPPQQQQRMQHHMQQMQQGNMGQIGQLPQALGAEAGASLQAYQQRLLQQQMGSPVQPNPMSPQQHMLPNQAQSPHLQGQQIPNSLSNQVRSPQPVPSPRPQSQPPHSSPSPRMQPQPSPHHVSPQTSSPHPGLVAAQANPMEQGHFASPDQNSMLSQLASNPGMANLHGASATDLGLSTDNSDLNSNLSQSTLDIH

[9] = molecular target: BRD2(1) (Homo sapiens, UniProt P25440); parameters: purchased; conditions: ITC data; ref 7 (suppl.); cited from earlier work
BRD2(1), sequence (P25440 74-180 limits assumed): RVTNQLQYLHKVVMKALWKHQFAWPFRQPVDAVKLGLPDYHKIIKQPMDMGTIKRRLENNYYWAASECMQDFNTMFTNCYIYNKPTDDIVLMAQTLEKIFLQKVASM

[10] = molecular target: GCN5L2 (Homo sapiens, UniProt Q92830); assay: Histone acetyltransferase (HAT) activity assay; type: biochemical;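 also: selectivity screen of BRD probe compounds across a panel of histone acetyltransferases, HAT activity in % with compound at 1 or 10 µM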
[11] = molecular target: BRDT(1) (Homo sapiens, UniProt Q58F21); parameters: purchased; conditions: ITC data; ref 7 (suppl.); cited from earlier work
[12] = molecular target: T2, HAT1 (Homo sapiens, UniProt O14929); assay: Histone acetyltransferase (HAT) activity assay; type: biochemical;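 also: HAT selectivity screen of BRD probe compounds, enzyme activity in % measured with compound at 1 µM and 10 µM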
T2 sequence (O14929 1-419): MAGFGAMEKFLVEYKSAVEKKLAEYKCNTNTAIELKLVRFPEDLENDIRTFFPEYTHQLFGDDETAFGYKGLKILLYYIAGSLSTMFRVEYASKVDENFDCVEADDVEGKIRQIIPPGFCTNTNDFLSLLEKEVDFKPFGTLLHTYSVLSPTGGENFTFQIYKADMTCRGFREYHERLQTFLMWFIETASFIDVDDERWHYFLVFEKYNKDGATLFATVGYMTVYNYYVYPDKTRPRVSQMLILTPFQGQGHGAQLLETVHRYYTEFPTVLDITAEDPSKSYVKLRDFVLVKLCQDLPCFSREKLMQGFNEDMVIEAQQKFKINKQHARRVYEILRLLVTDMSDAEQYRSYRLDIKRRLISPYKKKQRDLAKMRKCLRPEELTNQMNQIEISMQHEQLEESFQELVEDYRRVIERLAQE

[13] = tested on: ten TNBC cell lines; assay: High-throughput screening of bromodomain inhibitors in TNBC panel (confluency); type: cell-based, human; conditions: 3 μM, 7 days
Protocol: Fig. 6 BRD inhibitors leverage metabolic adaptations induced by glucose transporter I (GLUT1) inhibition in TNBC. a BRD inhibitor screening across ten TNBC cell lines. Cells were treated with indicated BRD inhibitors at 3 μM for 7 days. Confluency was measured using an IncuCyte ZOOM live cell imaging device. Data shown are mean ± s.d. of n = 4 independent cell culture grown and treated cells. A two-sided Student’s t test was used to derive the p-values. b SLC2A1 gene expression in the The Cancer Genome Atlas (TCGA) breast datasets. The cohorts were divided into TNBCs (red) and non-TNBCs (blue) according to PAM50 classification. Gene expression is reported as median-centered expression log2 values. The number of patients (n) per group is indicated. P-values were determined using a Wilcoxon's rank-sum test. c Glucose uptake in MDA-MB-436 cells in response to BAY-876 treatment relative to vehicle. MDA-MB-436 cells were treated with dimethyl sulfoxide (DMSO) or 3 µM BAY-876 for 5 days. […]
TNBC cell lines were seeded in sterile, transparent 384-well plates at 500 cells per well in 50 µl media. […] Cell confluency at 7 days was evaluated using an Incucyte ZOOM live cell imaging device (Essen Bioscence) and analyzed with the Incucyte ZOOM (2016A) software based on phase contrast image.

BRD3(2), sequence (Q15059 306-415 limits assumed): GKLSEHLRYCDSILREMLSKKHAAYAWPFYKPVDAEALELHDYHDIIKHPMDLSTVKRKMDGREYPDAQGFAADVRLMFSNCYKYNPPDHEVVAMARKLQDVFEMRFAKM

HATs Activity (%) ([3]; 1µM): 101%
HATs Activity (%) ([3]; 10µM): 95%
HATs Activity (%) ([7]; 1µM): 105%
HATs Activity (%) ([7]; 10µM): 86%
HATs Activity (%) ([8]; 1µM): 99%
HATs Activity (%) ([8]; 10µM): 100%
HATs Activity (%) ([10]; 1µM): 96%
HATs Activity (%) ([10]; 10µM): 93%
HATs Activity (%) ([12]; 1µM): 102%
HATs Activity (%) ([12]; 10µM): 93%
Compound: COc1ccccc1S(=O)(=O)Nc1ccc2c(c1)CN(C)C(=O)N2 [PFI-1]
Kd [1]: 76 nM
viability in combination with BAY-876 [2]: significant decrease in viability
Kd [4]: 80 nM
Kd [5]: 221 nM
Kd [6]: 144 nM
Kd [9]: 108 nM
Kd [11]: 85 nM
anti-proliferative effect (confluency) [13]: strong anti-proliferative effects
